Measured values: patent publication US20200315176A1, “FUNGICIDAL COMPOSITIONS” (SYNGENTA PARTICIPATIONS AG, priority 2017, published 2020)

Experiments:
Phakopsora pachrhizi = experiment: Example A3: fungicidal activity against Phakopsora pachrhizi / soybean / leaf disc preventative (Asian soybean rust); assay type: in vivo; details: Phakopsora pachyrhizi, foliar, 200 ppm in the applied formulation, soybean leaf disks, read-out: disease control
Description: (§1) Leaf disks or leaf segments of various plant species are cut from plants grown in a greenhouse. The cut leaf disks or segments are placed in multiwell plates (24-well format) onto water agar. The leaf disks are sprayed with a test solution before (preventative) or after (curative) inoculation. Compounds to be tested are prepared as DMSO solutions (max. 10 mg/mL) which are diluted to the appropriate concentration with 0.025% Tween20 just before spraying. The inoculated leaf disks or segments are incubated under defined conditions (temperature, relative humidity, light, etc.) according to the respective test system. A single evaluation of disease level is carried out 3 to 14 days after inoculation, depending on the pathosystem. Percent disease control relative to the untreated check leaf disks or segments is then calculated.
Soybean leaf disks are placed on water agar in multiwell plates (24-well format) and sprayed with the formulated test compound diluted in water. One day after application leaf discs are inoculated by spraying a spore suspension on the lower leaf surface. After an incubation period in a climate cabinet of 24-36 hours in darkness at 20° C. and 75% rh leaf disc are kept at 20° C. with 12 h light/day and 75% rh. The activity of a compound is assessed as percent disease control compared to untreated when an appropriate level of disease damage appears in untreated check leaf disks (12 to 14 days after application).

[1] = tested on: Puccinia recondita f. sp. tritici; experiment: Example A2: fungicidal activity against Puccinia recondita f. sp. tritici / wheat / leaf disc curative (brown rust); assay type: in vivo; details: foliar, 24 h, 200 ppm in the applied formulation, curative (applied 1 day after inoculation), wheat leaf segments, read-out: disease control
Description: as §1
Wheat leaf segments cv. Kanzler are placed on agar in multiwell plates (24-well format). The leaf segments are then inoculated with a spore suspension of the fungus. Plates were stored in darkness at 19° C. and 75% relative humidity. The formulated test compound diluted in water was applied 1 day after inoculation. The leaf segments were incubated at 19° C. and 75% relative humidity under a light regime of 12 hours light/12 hours darkness in a climate cabinet and the activity of a compound was assessed as percent disease control compared to untreated when an appropriate level of disease damage appears in untreated check leaf segments (6 to 8 days after application).

[2] = tested on: Puccinia recondita f. sp. tritici; experiment: Example A1: fungicidal activity against Puccinia recondita f. sp. tritici / wheat / leaf disc preventative (brown rust); assay type: in vivo; details: foliar, 200 ppm in the applied formulation, wheat leaf segments, compared to untreated, read-out: disease control
Description: as §1
Wheat leaf segments cv. Kanzler were placed on agar in multiwell plates (24-well format) and sprayed with the formulated test compound diluted in water. The leaf disks were inoculated with a spore suspension of the fungus 1 day after application. The inoculated leaf segments were incubated at 19° C. and 75% relative humidity (rh) under a light regime of 12 hours light/12 hours darkness in a climate cabinet and the activity of a compound was assessed as percent disease control compared to untreated when an appropriate level of disease damage appears in untreated check leaf segments (7 to 9 days after application).

[3] = tested on: Glomerella lagenarium (Colletotrichum lagenarium); experiment: Example A4: fungicidal activity against Glomerella lagenarium (Colletotrichum lagenarium) liquid culture / cucumber / preventative (anthracnose); assay type: cell-based; details: Colletotrichum orbiculare, 20 ppm in the applied formulation, growth measured photometrically 3 to 4 days after application, read-out: disease control
Description: Mycelia fragments or conidia suspensions of a fungus prepared either freshly from liquid cultures of the fungus or from cryogenic storage, are directly mixed into nutrient broth. DMSO solutions of the test compound (max. 10 mg/mL) are diluted with 0.025% Tween20 by a factor of 50 and 10 μL of this solution is pipetted into a microtiter plate (96-well format). The nutrient broth containing the fungal spores/mycelia fragments is then added to give an end concentration of the tested compound. The test plates are incubated in the dark at 24° C. and 96% relative humidity. The inhibition of fungal growth is determined photometrically after 2 to 7 days, depending on the pathosystem, and percent antifungal activity relative to the untreated check is calculated. Conidia of the fungus from cryogenic storage are directly mixed into nutrient broth (PDB—potato dextrose broth). After placing a (DMSO) solution of test compound into a microtiter plate (96-well format), the nutrient broth containing the fungal spores is added.

Row | melting point | Compound | pest or weed control at 200 ppm (Phakopsora pachrhizi) | pest or weed control at 200 ppm [1] | pest or weed control at 200 ppm [2] | inhibition of growth at 20 ppm [3]
1 | 128 to 138 °C | CONC(=O)c1cnn(Cc2ccc(-c3noc(C(F)(F)F)n3)cc2)c1 [X.17, N-methoxy-1-[[4-[5-(trifluoromethyl)-1,2,4-oxadiazol-3-yl]phenyl]methyl]pyrazole-4-carboxamide] | ≥ 80% | ≥ 80% | ≥ 80% | ≥ 80%
2 | 166 to 176 °C | CCNC(=O)c1cnn(Cc2ccc(-c3noc(C(F)(F)F)n3)cc2)c1 [X.18, N-ethyl-1-[[4-[5-(trifluoromethyl)-1,2,4-oxadiazol-3-yl]phenyl]methyl]pyrazole-4-carboxamide] | ≥ 80% | ≥ 80% | ≥ 80% | ≥ 80%
